Experimental data from ChEMBL document CHEMBL1201862, “PubChem BioAssay data set” (2004).
The source made the active and inactive calls.

Tests used:
[1] = molecular target: T1, G-protein coupled receptor 35 (Homo sapiens, UniProt Q9HC97); assay: SAR analysis of Agonists of the GPR35 Receptor using an Image-Based Assay - Set 4. [Related pubchem assays (depositor defined):AID2013, AID2026]; assay type: functional
Cannabinoid receptor 1 [2] = molecular target: T2, Cannabinoid receptor 1 (Homo sapiens, UniProt P21554); assay: SAR analysis of antagonists of the Cannabinoid Receptor 1 using an Image-Based Assay - Set 4. [Related pubchem assays (depositor defined):AID2013, AID2026]; assay type: functional
T2 sequence (P21554 whole entry): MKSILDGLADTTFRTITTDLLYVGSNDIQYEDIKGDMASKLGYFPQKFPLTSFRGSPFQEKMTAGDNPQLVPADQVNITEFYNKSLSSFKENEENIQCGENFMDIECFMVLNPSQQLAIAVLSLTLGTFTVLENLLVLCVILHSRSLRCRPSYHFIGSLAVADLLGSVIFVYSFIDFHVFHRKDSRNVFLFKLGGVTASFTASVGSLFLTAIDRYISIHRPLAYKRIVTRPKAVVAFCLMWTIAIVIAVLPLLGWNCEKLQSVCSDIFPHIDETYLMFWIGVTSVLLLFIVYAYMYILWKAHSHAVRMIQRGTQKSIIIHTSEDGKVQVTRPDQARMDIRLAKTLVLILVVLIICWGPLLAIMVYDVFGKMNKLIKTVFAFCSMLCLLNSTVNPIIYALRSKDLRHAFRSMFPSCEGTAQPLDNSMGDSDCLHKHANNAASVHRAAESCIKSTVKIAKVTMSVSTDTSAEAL

Cannabinoid receptor 2 [3] = molecular target: T3, Cannabinoid receptor 2 (Homo sapiens, UniProt P34972); assay: SAR analysis of antagonists of the Cannabinoid Receptor 2 using an Image-Based Assay - Set 3. [Related pubchem assays (depositor defined):AID2013, AID2026]; assay type: functional
T3 sequence (P34972 whole entry): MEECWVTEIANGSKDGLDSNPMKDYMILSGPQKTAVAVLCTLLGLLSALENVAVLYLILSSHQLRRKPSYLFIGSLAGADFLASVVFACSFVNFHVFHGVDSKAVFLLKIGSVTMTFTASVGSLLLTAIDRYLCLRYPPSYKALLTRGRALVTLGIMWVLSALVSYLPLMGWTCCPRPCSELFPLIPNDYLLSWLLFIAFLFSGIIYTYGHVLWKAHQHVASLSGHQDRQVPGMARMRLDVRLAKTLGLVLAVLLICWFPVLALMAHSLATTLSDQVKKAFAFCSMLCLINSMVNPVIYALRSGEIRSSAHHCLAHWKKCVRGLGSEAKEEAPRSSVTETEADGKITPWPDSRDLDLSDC

[4] = molecular target: T1, G-protein coupled receptor 35; assay: SAR analysis of Antagonists of the GPR35 Receptor using an Image-Based Assay - Set 6. [Related pubchem assays (depositor defined):AID2013, AID2026]; assay type: functional
Cannabinoid receptor 1 [5] = molecular target: T2, Cannabinoid receptor 1; assay: SAR analysis of agonists of the Cannabinoid Receptor 1 using an Image-Based Assay - Set 4. [Related pubchem assays (depositor defined):AID2013, AID2026]; assay type: functional
Cannabinoid receptor 2 [6] = molecular target: T3, Cannabinoid receptor 2; assay: SAR analysis of agonists of the Cannabinoid Receptor 2 using an Image-Based Assay - Set 3. [Related pubchem assays (depositor defined):AID2013, AID2026]; assay type: functional
[7] = molecular target: G-protein coupled receptor 55 (Homo sapiens, UniProt Q9Y2T6); assay: SAR Analysis of Selective Antagonists of GPR55 using an Image-Based Assay - Set 4. [Related pubchem assays (depositor defined):AID2013, AID2026]; assay type: functional;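 also: antagonism of response to 5 µM lysophosphatidylinositol agonist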
Chain of G-protein coupled receptor 55 (Q9Y2T6 whole entry): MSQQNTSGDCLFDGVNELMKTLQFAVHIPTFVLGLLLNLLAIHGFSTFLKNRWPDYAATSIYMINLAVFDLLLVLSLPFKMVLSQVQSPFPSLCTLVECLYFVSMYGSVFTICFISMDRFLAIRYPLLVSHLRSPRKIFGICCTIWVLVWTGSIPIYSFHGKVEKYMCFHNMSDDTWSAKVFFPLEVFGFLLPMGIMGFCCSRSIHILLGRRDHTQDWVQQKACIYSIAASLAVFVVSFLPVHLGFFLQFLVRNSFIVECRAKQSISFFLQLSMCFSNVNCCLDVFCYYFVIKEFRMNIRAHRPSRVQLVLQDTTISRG

[8] = molecular target: T4, Kappa-type opioid receptor (Homo sapiens, UniProt P41145); assay: SAR analysis of small molecule agonists of the kappa opioid receptor via a luminescent beta-arrestin assay - Set 3. [Related pubchem assays (depositor defined):AID1777, AID1785, AID1786, AID1966, AID2133, AID2136, AID2284, AID2500]; assay type: functional
T4 sequence (P41145 whole entry): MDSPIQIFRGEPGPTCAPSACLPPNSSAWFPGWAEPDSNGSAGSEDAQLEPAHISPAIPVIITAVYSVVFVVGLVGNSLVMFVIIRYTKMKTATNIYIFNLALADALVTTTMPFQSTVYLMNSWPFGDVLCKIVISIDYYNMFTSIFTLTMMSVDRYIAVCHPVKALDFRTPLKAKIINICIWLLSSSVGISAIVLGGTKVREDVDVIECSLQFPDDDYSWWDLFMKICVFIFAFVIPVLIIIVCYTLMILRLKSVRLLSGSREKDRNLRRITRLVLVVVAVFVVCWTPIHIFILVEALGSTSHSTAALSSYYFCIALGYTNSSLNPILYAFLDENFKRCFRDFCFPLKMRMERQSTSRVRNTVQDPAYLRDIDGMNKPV

[9] = cytotoxicity toward NIH3T3 fibroblasts, dose response, counter-screen, cell-based, ATP luminescence, mouse fibroblasts (AID 2010); assay type: functional;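 also: cells exposed to compound for about 90 hours before reading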
Beta-galactosidase = Beta-galactosidase (Escherichia coli, UniProt Q8VNN2); assay type: functional
[10] = inhibitors of firefly luciferase expression or activity, dose response, H4 neuroglioma cells, luminescence (AID 1990); assay type: functional, cell-based
[11] = molecular target: T4, Kappa-type opioid receptor; assay type: functional
[12] = inhibitors of intracellular T. cruzi replication, confirmation, NIH3T3 host cells, beta-gal luminescence (AID 2044); assay type: functional, cell-based;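 also: intracellular parasites grown in NIH/3T3 mouse fibroblasts as host cells; luminescent beta-galactosidase reporter signal from transgenic T. cruzi replicating inside host cells; inhibitors lower the luminescence signal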
[13] = non-specific cell cytotoxicity, dose response, cytotoxicity control for PAX8 inhibitor project, plate reader, dry powder samples (AID 743021); assay type: functional, cell-based
[14] = LGR2 antagonists, dose response, cell-based, HEK293, CRE-luciferase reporter, cherry pick, set 2 (AID 743343); assay type: functional;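 also: transfected cells were stimulated with diluted bursicon conditioned medium after compound addition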
Mu-type opioid receptor = Mu-type opioid receptor (Homo sapiens, UniProt P35372); assay: HTS Image-Based Screen for Agonists of the MOR Receptor. [Related pubchem assays (depositor defined):AID1777, AID1785, AID1786, AID2133]; assay type: functional;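 also: imaging of beta-arrestin GFP recruitment into spots after receptor activation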
Chain of Mu-type opioid receptor (P35372 whole entry): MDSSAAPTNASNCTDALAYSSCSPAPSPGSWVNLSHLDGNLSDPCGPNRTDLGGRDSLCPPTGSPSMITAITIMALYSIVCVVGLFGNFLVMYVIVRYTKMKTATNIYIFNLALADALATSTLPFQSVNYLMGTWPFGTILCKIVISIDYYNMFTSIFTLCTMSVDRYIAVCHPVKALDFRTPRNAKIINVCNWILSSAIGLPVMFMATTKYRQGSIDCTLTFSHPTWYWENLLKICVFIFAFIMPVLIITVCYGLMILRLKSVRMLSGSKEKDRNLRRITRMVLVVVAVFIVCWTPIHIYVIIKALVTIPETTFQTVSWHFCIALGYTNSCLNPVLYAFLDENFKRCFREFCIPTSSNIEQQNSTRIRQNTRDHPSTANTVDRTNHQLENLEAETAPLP

[15] = inhibitors of SNCA 5'UTR-driven reporter translation, confirmation, H4 neuroglioma cells, luminescence (AID 1988); assay type: functional, cell-based
[16] = molecular target: T5, Delta-type opioid receptor (Homo sapiens, UniProt P41143); assay: HTS Image-Based Screen for Agonists of the DOR Receptor. [Related pubchem assays (depositor defined):AID1777, AID1786, AID2133]; assay type: functional
T5 sequence (P41143 whole entry): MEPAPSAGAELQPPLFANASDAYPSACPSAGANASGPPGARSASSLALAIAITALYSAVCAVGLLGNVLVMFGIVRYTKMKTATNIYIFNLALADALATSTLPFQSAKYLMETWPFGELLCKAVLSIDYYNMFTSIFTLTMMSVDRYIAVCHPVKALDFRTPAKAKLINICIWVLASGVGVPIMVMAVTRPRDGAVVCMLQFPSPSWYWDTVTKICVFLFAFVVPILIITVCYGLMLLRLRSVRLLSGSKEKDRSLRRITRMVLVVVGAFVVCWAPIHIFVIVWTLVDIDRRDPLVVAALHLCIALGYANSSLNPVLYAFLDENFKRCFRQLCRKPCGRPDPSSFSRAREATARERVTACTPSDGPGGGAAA

[17] = molecular target: T4, Kappa-type opioid receptor; assay type: functional; remark: listed apart in the source
[18] = MC4R antagonists, dose response, counter-screen for LGR2 antagonist project, cell-based, plate reader, cherry pick (AID 743444); assay type: functional;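 also: transfected HEK 293 cells stimulated with alpha-MSH peptide; potency of inhibitors of the alpha-MSH evoked signal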
[19] = HepG2 cell cytotoxicity, dose response, cytotoxicity control, plate reader, cherry-pick, antagonist series (AID 743416); assay type: functional, cell-based
CHO = assay: cytotoxicity in TLR9-MyD88 CHO cells, dose response, cytotoxicity control for TLR9-MyD88 binding inhibitor project, cell-based, luminescence (AID 588339); assay type: functional, hamster; settings: Cricetulus griseus;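 also: CHO cells stably coexpressing TLR9 and MyD88 fusions from primary screen; compound exposure lasted 48 hours before viability readout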
[20] = molecular target: T5, Delta-type opioid receptor; assay: HTS Image-Based Screen for Antagonists of the DOR Receptor. [Related pubchem assays (depositor defined):AID1777, AID1785, AID1786, AID2133]; assay type: functional
[21] = HEK293 cell cytotoxicity, dose response, cytotoxicity control, plate reader, cherry-picked samples (AID 743446); assay type: functional, cell-based
[22] = molecular target: T6, Heat shock factor protein 1 (Mus musculus, UniProt P38532); assay: HSF1 potentiators in luciferase reporter cells, confirmation, cell-based, NIH3T3, luminescence, dose retest (AID 435004); assay type: functional;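 also: stress induced by proteasome inhibitor MG132 added 30 min after compound; luciferase reporter driven by HSF1 response element in NIH3T3 cells; actives raise luminescence as potentiators of the MG132 stress response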
T6 sequence (P38532 whole entry): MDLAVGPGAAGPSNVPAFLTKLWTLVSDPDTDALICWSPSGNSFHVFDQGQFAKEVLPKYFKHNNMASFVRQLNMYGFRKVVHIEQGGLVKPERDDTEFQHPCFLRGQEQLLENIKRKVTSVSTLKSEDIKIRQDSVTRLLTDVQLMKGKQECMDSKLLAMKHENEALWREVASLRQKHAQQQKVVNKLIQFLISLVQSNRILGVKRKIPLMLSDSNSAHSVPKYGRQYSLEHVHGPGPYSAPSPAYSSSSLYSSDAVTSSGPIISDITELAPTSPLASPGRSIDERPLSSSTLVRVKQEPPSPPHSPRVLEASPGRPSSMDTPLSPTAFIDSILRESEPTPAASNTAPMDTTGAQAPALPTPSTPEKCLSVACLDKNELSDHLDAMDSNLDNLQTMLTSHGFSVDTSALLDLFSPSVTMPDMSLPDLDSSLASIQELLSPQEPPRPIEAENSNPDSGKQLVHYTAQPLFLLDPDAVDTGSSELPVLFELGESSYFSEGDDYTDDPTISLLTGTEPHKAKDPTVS

Paired box protein Pax-8 = Paired box protein Pax-8 (Homo sapiens, UniProt Q06710); assay: inhibitors of PAX8-driven TPO luciferase reporter, dose response, RMG-I cells, cherry-pick (AID 687027); assay type: functional, cell-based;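 also: luciferase reporter driven by Pax8 target thyroperoxidase promoter measured by SteadyGlo luminescence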
Chain of Paired box protein Pax-8 (Q06710 whole entry): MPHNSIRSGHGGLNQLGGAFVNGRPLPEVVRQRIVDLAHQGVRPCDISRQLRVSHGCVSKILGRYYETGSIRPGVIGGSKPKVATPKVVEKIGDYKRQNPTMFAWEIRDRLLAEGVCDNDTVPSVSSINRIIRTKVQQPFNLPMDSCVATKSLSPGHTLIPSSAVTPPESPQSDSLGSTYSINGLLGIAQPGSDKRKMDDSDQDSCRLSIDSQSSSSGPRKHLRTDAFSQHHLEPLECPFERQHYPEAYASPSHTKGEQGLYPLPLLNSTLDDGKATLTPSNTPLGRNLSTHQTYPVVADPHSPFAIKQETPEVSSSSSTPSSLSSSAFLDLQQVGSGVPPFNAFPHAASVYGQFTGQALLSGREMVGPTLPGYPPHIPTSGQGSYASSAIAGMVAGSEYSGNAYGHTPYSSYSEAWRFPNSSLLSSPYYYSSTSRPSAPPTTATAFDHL

Beta Lactamase = Beta Lactamase (Pseudomonas aeruginosa, UniProt Q932Y6); assay: beta-lactamase reporter inhibitor potency, dose response, artefact control for TLR9-MyD88 binding inhibitor project, BLA reporter cells, FRET fluorescence (AID 588341); assay type: cell-based;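 also: cell based assay in CHO-K1 cells stably expressing beta-lactamase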
Chain of Beta Lactamase (Q932Y6 whole entry): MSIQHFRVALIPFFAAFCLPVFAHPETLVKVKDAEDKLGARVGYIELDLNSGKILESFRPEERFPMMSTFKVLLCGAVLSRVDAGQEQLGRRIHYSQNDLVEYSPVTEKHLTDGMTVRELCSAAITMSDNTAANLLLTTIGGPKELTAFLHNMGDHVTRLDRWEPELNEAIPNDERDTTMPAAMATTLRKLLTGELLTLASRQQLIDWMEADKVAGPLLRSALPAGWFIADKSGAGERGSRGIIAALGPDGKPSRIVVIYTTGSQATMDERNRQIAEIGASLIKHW

[23] = inhibitors of PGC1a acetylation in cells, dose response, cell-based, cherry-picked samples (AID 720514); assay type: functional;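 also: potency may reflect raised or lowered acetylation signal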
[24] = A549 cell cytotoxicity, dose response, cytotoxicity control, plate reader, cherry-pick, antagonist series (AID 743412); assay type: functional, cell-based
Hexokinase-1 = Hexokinase-1 (Homo sapiens, UniProt P19367); assay: hexokinase 1 activators, dose response, selectivity assay for HKDC1 activator project, biochemical (AID 504762); assay type: functional
Chain of Hexokinase-1 (P19367 whole entry): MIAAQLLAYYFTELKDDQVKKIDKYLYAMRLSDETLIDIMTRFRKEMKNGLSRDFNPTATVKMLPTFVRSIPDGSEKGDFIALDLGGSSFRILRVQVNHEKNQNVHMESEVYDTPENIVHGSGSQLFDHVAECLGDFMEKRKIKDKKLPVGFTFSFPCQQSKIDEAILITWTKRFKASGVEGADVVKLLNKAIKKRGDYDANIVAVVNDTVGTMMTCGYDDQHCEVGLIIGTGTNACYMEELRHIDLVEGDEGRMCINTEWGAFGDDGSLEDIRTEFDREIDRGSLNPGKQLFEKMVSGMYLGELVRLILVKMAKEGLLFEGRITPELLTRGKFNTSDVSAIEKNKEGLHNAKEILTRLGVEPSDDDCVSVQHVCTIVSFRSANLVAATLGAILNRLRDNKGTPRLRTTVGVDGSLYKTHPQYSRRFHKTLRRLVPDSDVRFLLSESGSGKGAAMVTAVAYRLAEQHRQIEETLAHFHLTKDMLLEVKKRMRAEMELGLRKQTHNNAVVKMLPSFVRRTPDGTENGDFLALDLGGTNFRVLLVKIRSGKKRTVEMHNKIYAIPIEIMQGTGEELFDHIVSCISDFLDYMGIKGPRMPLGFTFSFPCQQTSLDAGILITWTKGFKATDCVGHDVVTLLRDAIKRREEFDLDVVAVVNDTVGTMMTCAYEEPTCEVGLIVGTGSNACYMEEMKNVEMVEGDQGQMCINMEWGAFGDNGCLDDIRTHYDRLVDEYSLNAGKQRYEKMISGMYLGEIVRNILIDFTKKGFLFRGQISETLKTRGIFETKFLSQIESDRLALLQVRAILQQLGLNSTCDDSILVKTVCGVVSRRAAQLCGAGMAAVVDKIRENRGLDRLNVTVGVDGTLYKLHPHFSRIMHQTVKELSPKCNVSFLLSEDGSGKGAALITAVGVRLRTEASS

Hexokinase HKDC1 = molecular target: T7, Hexokinase HKDC1 (Homo sapiens, UniProt Q2TB90); assay: HKDC1 hexokinase activators, dose response, biochemical, W721R variant (AID 504730); assay type: functional
T7 sequence (Q2TB90 whole entry): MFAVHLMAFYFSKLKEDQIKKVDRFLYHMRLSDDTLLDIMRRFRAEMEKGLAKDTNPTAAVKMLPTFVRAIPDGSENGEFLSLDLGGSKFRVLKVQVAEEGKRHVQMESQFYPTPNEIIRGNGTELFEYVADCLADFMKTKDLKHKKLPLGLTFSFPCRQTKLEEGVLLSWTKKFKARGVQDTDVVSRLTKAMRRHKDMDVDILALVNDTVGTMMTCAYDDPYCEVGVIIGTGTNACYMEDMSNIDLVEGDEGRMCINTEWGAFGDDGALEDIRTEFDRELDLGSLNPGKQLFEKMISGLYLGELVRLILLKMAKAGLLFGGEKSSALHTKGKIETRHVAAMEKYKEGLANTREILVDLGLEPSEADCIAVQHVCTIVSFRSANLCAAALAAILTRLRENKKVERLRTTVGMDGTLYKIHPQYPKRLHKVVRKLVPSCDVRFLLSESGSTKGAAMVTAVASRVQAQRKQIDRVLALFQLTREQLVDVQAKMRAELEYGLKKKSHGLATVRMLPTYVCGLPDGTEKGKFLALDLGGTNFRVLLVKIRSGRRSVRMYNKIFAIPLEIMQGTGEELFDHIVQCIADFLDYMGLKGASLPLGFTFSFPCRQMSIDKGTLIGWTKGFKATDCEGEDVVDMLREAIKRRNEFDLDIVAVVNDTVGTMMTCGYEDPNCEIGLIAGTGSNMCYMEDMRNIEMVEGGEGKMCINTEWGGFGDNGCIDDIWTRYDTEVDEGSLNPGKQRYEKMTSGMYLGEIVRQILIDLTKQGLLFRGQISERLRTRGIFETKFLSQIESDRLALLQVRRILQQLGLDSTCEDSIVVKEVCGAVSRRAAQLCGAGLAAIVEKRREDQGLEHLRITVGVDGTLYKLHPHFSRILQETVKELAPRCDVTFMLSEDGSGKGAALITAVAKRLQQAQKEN

cells = assay type: functional

T1 sequence (Q9HC97 whole entry): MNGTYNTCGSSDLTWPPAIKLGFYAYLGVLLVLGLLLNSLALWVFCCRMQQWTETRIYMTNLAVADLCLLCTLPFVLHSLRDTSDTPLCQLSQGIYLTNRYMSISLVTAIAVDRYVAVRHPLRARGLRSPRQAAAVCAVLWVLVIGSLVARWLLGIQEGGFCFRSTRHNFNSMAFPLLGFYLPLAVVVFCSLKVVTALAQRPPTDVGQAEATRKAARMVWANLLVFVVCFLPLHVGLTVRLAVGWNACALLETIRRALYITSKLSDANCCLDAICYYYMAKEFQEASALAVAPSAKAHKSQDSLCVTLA

Cc1nc(N2CCN(C(=O)c3cccs3)CC2)c2c3c(sc2n1)CCCC3
EC50 [1]: > 32 µM (inactive) | IC50 (Cannabinoid receptor 1 [2]): 3.94 µM (active) | IC50 (Cannabinoid receptor 2 [3]): > 32 µM (inactive) | IC50 [4]: > 32 µM (inactive) | EC50 (Cannabinoid receptor 1 [5]): > 32 µM (inactive) | EC50 (Cannabinoid receptor 2 [6]): > 32 µM (inactive) | IC50 [7]: 4.13 µM (active)

Brc1ccc(CSc2nnc(-c3ccccn3)n2Cc2ccccc2)cc1
EC50 [8]: 4.06 µM (active)

S=c1sc2c(Cl)ncnc2n1-c1ccccc1
EC50 [9]: 14.4 µM (active) | EC50 (Beta-galactosidase): > 31.5 µM (inactive) | EC50 [10]: 8.14 µM (active) | IC50 [11]: 7.27 µM (active) | EC50 [12]: 2.26 µM (active) | AC50 [13]: 60.6 µM (active) | AC50 [14]: 17.8 µM (active) | EC50 (Mu-type opioid receptor): > 32 µM (inactive) | EC50 [15]: 7.71 µM (active) | EC50 [16]: > 32 µM (inactive) | IC50 [17]: 3.55 µM | AC50 [18]: 24.5 µM (active) | AC50 [19]: 13.2 µM (active) | IC50 (CHO): 9.35 µM (active) | IC50 [20]: 4.7 µM (active) | AC50 [21]: 8.88 µM (active) | EC50 [22]: 17.6 µM (active) | AC50 (Paired box protein Pax-8): 7.52 µM (active) | IC50 (Beta Lactamase): > 49.7 µM (inactive) | AC50 [23]: 2.79 µM (active) | AC50 [24]: 8.81 µM (active)

CCOC(=O)Cn1c2ccc(F)cc2c2nc(C)sc21
EC50 (Hexokinase-1): 56.2 µM (inactive) | EC50 (Hexokinase HKDC1): 59.1 µM (inactive) | IC50 (cells): 14.2 µM (active)
